One may read the IC50 as the point on the concentration scale where inhibition reaches its midpoint. Low values mean inhibition by little substance, high ones a need for much substance.

Among the data in ChEMBL document CHEMBL3600317, “In silico investigation of FOXM1 binding and novel inhibitors in epithelial ovarian cancer” (Bioorg Med Chem, 2015) are Activity, inhibition and IC50 values, retold here.

The source made the active and inactive calls. No cut-off for these calls is given here.

In assay [1] the test system is SK-OV-3. Briefly: Cytotoxicity against human SKOV3 cells at 10 uM after 72 hrs by sulforhodamine B assay. It is filed as functional. (Sulforhodamine B stains cellular protein and so reports cell mass.)
Assay [2] concerns ES2. As to the kind of experiment: Cytotoxicity against human ES2 cells at 10 uM after 72 hrs by sulforhodamine B assay. It is filed as functional, cell-based.
The test system of assay [3] is OVCAR-3. Briefly: Cytotoxicity against human OVCAR3 cells at 10 uM after 72 hrs by sulforhodamine B assay. It is filed as functional.
For assay [4], the system named is ES2. Briefly: Cytotoxicity against human ES2 cells at 1 nM to 100 uM after 72 hrs by sulforhodamine B assay. It is filed as functional, cell-based.
In assay [5] the test system is SK-OV-3. As to the kind of experiment: Cytotoxicity against human SKOV3 cells at 1 nM to 100 uM after 72 hrs by sulforhodamine B assay. It is filed as functional, cell-based.
Assay [6] relates to OVCAR-3. Briefly: Cytotoxicity against human OVCAR3 cells at 1 nM to 100 uM after 72 hrs by sulforhodamine B assay. It is filed as functional, cell-based.
The test system of assay [7] is SK-OV-3. As to the kind of experiment: Inhibition of CCNB1 mRNA expression in human SKOV3 cells at 1 uM by RT-PCR analysis. It is filed as functional, cell-based.
Assay [8] relates to SK-OV-3. As to the kind of experiment: Inhibition of FOXM1 protein expression in human SKOV3 cells at 1 uM by Western blot analysis. It is filed as functional, cell-based.
Assay [9] in a line: Cytotoxicity against human ES2 cells after 72 hrs by sulforhodamine B assay. In kind it is functional, cell-based. The settings on record: ES-2, 72 h.
The subject of assay [10] is ES2. Briefly: Inhibition of CCNB1 protein expression in human ES2 cells at 1 uM by Western blot analysis. In kind it is functional, cell-based. (In general: Immunoblotting shows a protein as a band on a membrane.)
Assay [11] has as its system OVCAR-3. As to the kind of experiment: Cytotoxicity against human OVCAR3 cells after 72 hrs by sulforhodamine B assay. In kind it is functional, cell-based. The settings on record: OVCAR-3, 72 h.
In assay [12] the test system is ES2. As to the kind of experiment: Inhibition of FOXM1 mRNA expression in human ES2 cells at 1 uM by RT-PCR analysis. In kind it is functional, cell-based.
Assay [13] relates to OVCAR-3. Briefly: Inhibition of CCNB1 protein expression in human OVCAR3 cells at 1 uM by Western blot analysis. In kind it is functional, cell-based.
Assay [14] deals with OVCAR-3. Briefly: Inhibition of FOXM1 protein expression in human OVCAR3 cells at 1 uM by Western blot analysis. In kind it is functional, cell-based.
Assay [15] relates to SK-OV-3. As to the kind of experiment: Inhibition of CCNB1 protein expression in human SKOV3 cells at 1 uM by Western blot analysis. In kind it is functional, cell-based.
In assay [16] the test system is SK-OV-3. As to the kind of experiment: Inhibition of FOXM1 mRNA expression in human SKOV3 cells at 1 uM by RT-PCR analysis. In kind it is functional, cell-based.
Assay [17] deals with ES2. As to the kind of experiment: Inhibition of CCNB1 mRNA expression in human ES2 cells at 1 uM by RT-PCR analysis. In kind it is functional, cell-based.
Assay [18] deals with SK-OV-3. Briefly: Inhibition of CDC25B mRNA expression in human SKOV3 cells at 1 uM by RT-PCR analysis. In kind it is functional, cell-based.
In assay [19] the test system is ES2. Briefly: Inhibition of CDC25B mRNA expression in human ES2 cells at 1 uM by RT-PCR analysis. In kind it is functional, cell-based.
The subject of assay [20] is SK-OV-3. As to the kind of experiment: Cytotoxicity against human SKOV3 cells after 72 hrs by sulforhodamine B assay. In kind it is functional, cell-based. The settings on record: SK-OV-3, 72 h.
For assay [21], the system named is ES2. As to the kind of experiment: Inhibition of FOXM1 protein expression in human ES2 cells at 1 uM by Western blot analysis. In kind it is functional, cell-based.

Consider `O=C(Nc1ccc2ncccc2c1)Nc1ccc2ncccc2c1`, for which the Activity in the assay on SK-OV-3 [1] and in the assay with OVCAR-3 [3] was 20% throughout. The result in the assay on ES2 [2] was inactive.

`CC(=O)Nc1ccccc1[N+](=O)[O-]`: the result in the assay with ES2 [4], with SK-OV-3 [5] and with OVCAR-3 [6] was inactive.

Take `c1ccc(Nc2cc3ccccc3c3ccccc23)cc1`: the inhibition result in the assay with SK-OV-3 [7], with SK-OV-3 [8], in the assay with ES2 [10], in the assay on ES2 [12], in the assay on OVCAR-3 [13] and in the assay on OVCAR-3 [14] was “Active” throughout. The inhibition entry with SK-OV-3 [15], in the assay on SK-OV-3 [16], with ES2 [17], in the assay with SK-OV-3 [18], in the assay on ES2 [19] and in the assay with ES2 [21] was “Active” each time. The IC50 (in assay [9]; with OVCAR-3 [11]; in the assay with SK-OV-3 [20]) was 1000 nM in each case.
